Assay results taken from US12723063B2, “GIPR-agonist compounds” (Eli Lilly and Company, priority 2019, dated 2026).
pKi: −log10 of the molar value. *1 amine or outer side, *2 acyl side, *3 side chain or, on linkers, in order; H or OH if unused. Where a SMILES comes first, the peptide text is derived from it. Side-chain parts run from the residue outwards. [ ]: non-standard residue; d: D form. The star is where a group is joined. C20 diacid = O=C(O)CCCCCCCCCCCCCCCCCCC(=O)*; γGlu = O=C(O)[C@H](CCC(=O)[*:2])N[*:1]; AEEA = NCCOCCOCC(=O)O; Aib = CC(C)(N)C(=O)O

Tests used:
human GcgR = target: T1, human GcgR (Homo sapiens, UniProt P47871); experiment: [125I]-Glucagon binding, SPA with WGA beads, 0.1% bacitracin; details: geometric mean, read-out: hGcgR Ki
T1 construct: expressed in transfected cells; crude membranes
Description: (§1) Stably transfected cell lines are prepared by subcloning receptor cDNA into a pcDNA3 expression plasmid and transfected into human embryonic kidney (HEK) 293 (hGcgR and hGLP-1R) or Chinese Hamster Ovary (CHO) (hGIPR) cells followed by selection with Geneticin (hGLP-1R and hGIPR) or hygromycin B (hGcgR).
(§2) Two methods are used for the preparation of crude cell membranes.
(§3) Method 1: Frozen cell pellets are lysed on ice in hypotonic buffer containing 50 mM Tris HCl, pH 7.5, and Roche Complete™ Protease Inhibitors with EDTA. The cell suspension is disrupted using a glass Potter-Elvehjem homogenizer fitted with a Teflon® pestle for 25 strokes. The homogenate is centrifuged at 4° C. at 1100× g for 10 minutes. The supernatant is collected and stored on ice while the pellets are resuspended in homogenization buffer and rehomogenized as described above. The homogenate is centrifuged at 1100× g for 10 minutes. The second supernatant is combined with the first supernatant and centrifuged at 35000× g for 1 hour at 4° C. The resulting membrane pellet is resuspended in homogenization buffer containing protease inhibitors at approximately 1 to 3 mg/mL, quick frozen in liquid nitrogen and stored as aliquots in a −80° C. freezer until use.
(§4) Method 2: Frozen cell pellets are lysed on ice in hypotonic buffer containing 50 mM Tris HCl, pH 7.5, 1 mM MgCl2, Roche Complete™ EDTA-free Protease Inhibitors and 25 units/mL DNAse I (Invitrogen). The cell suspension is disrupted using a glass Potter-Elvehjem homogenizer fitted with a Teflon® pestle for 20 to 25 strokes. The homogenate is centrifuged at 4° C. at 1800× g for 15 minutes. The supernatant is collected and stored on ice while the pellets are resuspended in homogenization buffer (without DNAse I) and rehomogenized as described above. The homogenate is centrifuged at 1800× g for 15 minutes. The second supernatant is combined with the first supernatant and centrifuged an additional time at 1800× g for 15 minutes. The overall supernatant is then centrifuged at 25000× g for 30 minutes at 4° C. The resulting membrane pellet is resuspended in homogenization buffer (without DNAse I) containing protease inhibitors at approximately 1 to 3 mg/mL and stored as aliquots in a −80° C. freezer until use.
The human Geg receptor binding assays are performed using a Scintillation Proximity Assay (SPA) format with wheat germ agglutinin (WGA) beads (Perkin Elmer). The binding buffer contains 25 mM 4-(2-hydroxyethyl)-1-piperazineethanesulfonic acid (HEPES), pH 7.4, 2.5 mM CaCl2), 1 mM MgCl2, 0.1% (w/v) bacitracin (Research Products), 0.003% (w/v) Polyoxyethylenesorbitan monolaurate (TWEEN®-20), and Roche Complete™ Protease Inhibitors without EDTA. Peptides and Gcg are thawed and 3-fold serially diluted in 100% DMSO (10 point concentration response curves). Next, 5 μL serially diluted compound or DMSO is transferred into Corning® 3632 clear bottom assay plates containing 45 μL assay binding buffer or unlabeled Gcg control (non-specific binding or NSB, at 1 μM final). […] Plates are sealed and mixed on a plate shaker (setting 6) for 1 minute and read with a PerkinElmer Trilux MicroBeta® scintillation counter after 12 hours of incubation/settling time at room temperature.
(§5) Data are analyzed using four-parameter (curve maximum, curve minimum, IC50, Hill slope) nonlinear regression routines (Genedata Screener, version 12.0.4, Genedata AG, Basal, Switzerland). […] Values for Ki are reported as the geometric mean, with error expressed as the standard error of the mean (SEM) and n is equal to the number of independent replicates (determined in assays performed on different days). […] SEM is only calculated when […] or greater. Means are expressed as geometric means with the standard error of the mean (SEM) and the number of replicates (n) indicated in parentheses.

human GLP-1R = target: T2, human GLP-1R (Homo sapiens, UniProt P43220); experiment: [125I]-GLP-1 binding, SPA with WGA beads, 0.1% bacitracin; details: geometric mean, read-out: hGLP1R Ki
T2 construct: expressed in transfected cells; crude membranes
Description: as §1, §2, §3, §4
The binding buffer contains 25 mM HEPES, pH 7.4, 2.5 mM CaCl2), 1 mM MgCl2, 0.1% (w/v) bacitracin, 0.003% (w/v) TWEEN®-20, and Roche Complete™ Protease Inhibitors without EDTA.
as §5

T1 sequence (P47871 26-477): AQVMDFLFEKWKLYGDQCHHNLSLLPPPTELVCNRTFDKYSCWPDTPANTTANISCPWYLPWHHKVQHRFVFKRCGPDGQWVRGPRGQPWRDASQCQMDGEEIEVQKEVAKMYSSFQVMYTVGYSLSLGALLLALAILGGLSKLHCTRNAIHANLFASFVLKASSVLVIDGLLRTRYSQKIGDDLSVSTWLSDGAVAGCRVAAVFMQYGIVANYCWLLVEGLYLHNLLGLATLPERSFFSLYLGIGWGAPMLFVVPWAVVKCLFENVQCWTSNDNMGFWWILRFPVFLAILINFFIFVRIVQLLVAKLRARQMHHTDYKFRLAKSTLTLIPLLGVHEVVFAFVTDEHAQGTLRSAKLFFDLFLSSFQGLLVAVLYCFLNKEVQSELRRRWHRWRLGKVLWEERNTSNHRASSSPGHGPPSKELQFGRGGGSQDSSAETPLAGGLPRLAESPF
T2 sequence (P43220 24-463): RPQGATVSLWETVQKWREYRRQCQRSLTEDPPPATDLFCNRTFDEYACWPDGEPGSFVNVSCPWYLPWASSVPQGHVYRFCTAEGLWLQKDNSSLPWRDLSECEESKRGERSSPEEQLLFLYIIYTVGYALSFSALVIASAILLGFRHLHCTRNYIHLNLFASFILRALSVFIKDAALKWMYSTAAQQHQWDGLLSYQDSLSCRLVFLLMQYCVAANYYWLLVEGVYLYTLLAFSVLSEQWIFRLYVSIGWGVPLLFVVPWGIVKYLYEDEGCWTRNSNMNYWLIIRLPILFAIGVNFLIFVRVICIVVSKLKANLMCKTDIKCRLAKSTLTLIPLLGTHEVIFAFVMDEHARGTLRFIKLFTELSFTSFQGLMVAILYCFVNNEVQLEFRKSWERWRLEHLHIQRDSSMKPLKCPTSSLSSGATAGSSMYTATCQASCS

Compound | pKi (human GcgR) | pKi (human GLP-1R)
CC[C@H](C)[C@H](NC(=O)[C@H](CO)NC(=O)[C@H](Cc1ccc(O)cc1)NC(=O)[C@H](CC(=O)O)NC(=O)[C@H](CO)NC(=O)[C@@H](NC(=O)[C@H](Cc1ccccc1)NC(=O)[C@@H](NC(=O)CNC(=O)[C@H](CCC(=O)O)NC(=O)C(C)(C)NC(=O)[C@@H](N)Cc1ccc(O)cc1)[C@@H](C)O)[C@@H](C)CC)C(=O)N[C@@H](CC(C)C)C(=O)N[C@@H](CC(C)C)C(=O)N[C@@H](CC(=O)O)C(=O)N[C@@H](CCCCN)C(=O)N[C@@H](CCCCNC(=O)COCCOCCNC(=O)COCCOCCNC(=O)CC[C@H](NC(=O)CCCCCCCCCCCCCCCCCCC(=O)O)C(=O)O)C(=O)N[C@@H](C)C(=O)N[C@@H](CCC(N)=O)C(=O)NC(C)(C)C(=O)N[C@@H](CC(=O)O)C(=O)N[C@@H](Cc1ccccc1)C(=O)N[C@H](C(=O)N[C@@H](CC(N)=O)C(=O)N[C@@H](Cc1c[nH]c2ccccc12)C(=O)N[C@@H](CC(C)C)C(=O)N[C@@H](CC(C)C)C(=O)N[C@@H](C)C(=O)N[C@@H](CCC(N)=O)C(=O)NCC(=O)N1CCC[C@H]1C(=O)N[C@@H](CO)C(=O)N[C@@H](CO)C(=O)NCC(=O)N[C@@H](C)C(=O)N1CCC[C@H]1C(=O)N1CCC[C@H]1C(=O)N1CCC[C@H]1C(=O)N[C@@H](CO)C(N)=O)C(C)C [Example 8] (H-Y[Aib]EGTFISDYSILLDKK([AEEA-AEEA-γGlu-C20 diacid])AQ[Aib]DFVNWLLAQGPSSGAPPPS-NH2) | 7.00 | 7.42
CC[C@H](C)[C@H](NC(=O)[C@H](CO)NC(=O)[C@H](Cc1ccc(O)cc1)NC(=O)[C@H](CC(=O)O)NC(=O)[C@H](CO)NC(=O)[C@@H](NC(=O)[C@H](Cc1ccccc1)NC(=O)[C@@H](NC(=O)CNC(=O)[C@H](CCC(=O)O)NC(=O)[C@@H](C)NC(=O)[C@@H](N)Cc1ccc(O)cc1)[C@@H](C)O)[C@@H](C)CC)C(=O)N[C@@H](CC(C)C)C(=O)N[C@@H](CC(C)C)C(=O)N[C@@H](CC(=O)O)C(=O)N[C@@H](CCCCN)C(=O)N[C@@H](CCCCNC(=O)COCCOCCNC(=O)COCCOCCNC(=O)CC[C@H](NC(=O)CCCCCCCCCCCCCCCCCCC(=O)O)C(=O)O)C(=O)N[C@@H](Cc1c[nH]cn1)C(=O)N[C@@H](CCC(N)=O)C(=O)NC(C)(C)C(=O)N[C@@H](CC(=O)O)C(=O)N[C@@H](Cc1ccccc1)C(=O)N[C@H](C(=O)N[C@@H](CC(N)=O)C(=O)N[C@@H](Cc1c[nH]c2ccccc12)C(=O)N[C@@H](CC(C)C)C(=O)N[C@@H](CC(C)C)C(=O)N[C@@H](C)C(=O)N[C@@H](CCC(N)=O)C(=O)NCC(=O)N1CCC[C@H]1C(=O)N[C@@H](CO)C(=O)N[C@@H](CO)C(=O)NCC(=O)N[C@@H](C)C(=O)N1CCC[C@H]1C(=O)N1CCC[C@H]1C(=O)N1CCC[C@H]1C(=O)N[C@@H](CO)C(N)=O)C(C)C [Example 9] (H-Y[dA]EGTFISDYSILLDKK([AEEA-AEEA-γGlu-C20 diacid])HQ[Aib]DFVNWLLAQGPSSGAPPPS-NH2) | < 6.64 | 6.77
CC[C@H](C)[C@H](NC(=O)[C@H](CO)NC(=O)[C@H](Cc1ccc(O)cc1)NC(=O)[C@H](CC(=O)O)NC(=O)[C@H](CO)NC(=O)[C@@H](NC(=O)[C@H](Cc1ccccc1)NC(=O)[C@@H](NC(=O)CNC(=O)[C@H](CCC(=O)O)NC(=O)[C@@H](C)NC(=O)[C@@H](N)Cc1ccc(O)cc1)[C@@H](C)O)[C@@H](C)CC)C(=O)N[C@@H](CC(C)C)C(=O)N[C@@H](CC(C)C)C(=O)N[C@@H](CC(=O)O)C(=O)N[C@@H](CCCCN)C(=O)N[C@@H](CCCCNC(=O)COCCOCCNC(=O)COCCOCCNC(=O)CC[C@H](NC(=O)CCCCCCCCCCCCCCCCCCC(=O)O)C(=O)O)C(=O)N[C@@H](Cc1c[nH]cn1)C(=O)N[C@@H](CCC(N)=O)C(=O)N[C@@H](CCC(N)=O)C(=O)N[C@@H](CC(=O)O)C(=O)N[C@@H](Cc1ccccc1)C(=O)N[C@H](C(=O)N[C@@H](CC(N)=O)C(=O)N[C@@H](Cc1c[nH]c2ccccc12)C(=O)N[C@@H](CC(C)C)C(=O)N[C@@H](CC(C)C)C(=O)N[C@@H](C)C(=O)NCC(=O)NCC(=O)N1CCC[C@H]1C(=O)N[C@@H](CO)C(=O)N[C@@H](CO)C(=O)NCC(=O)N[C@@H](C)C(=O)N1CCC[C@H]1C(=O)N1CCC[C@H]1C(=O)N1CCC[C@H]1C(=O)N[C@@H](CO)C(N)=O)C(C)C [Example 10] (H-Y[dA]EGTFISDYSILLDKK([AEEA-AEEA-γGlu-C20 diacid])HQQDFVNWLLAGGPSSGAPPPS-NH2) | < 6.64 | 7.22
CC[C@H](C)[C@H](NC(=O)[C@H](CO)NC(=O)[C@H](Cc1ccc(O)cc1)NC(=O)[C@H](CC(=O)O)NC(=O)[C@H](CO)NC(=O)[C@@H](NC(=O)[C@H](Cc1ccccc1)NC(=O)[C@@H](NC(=O)CNC(=O)[C@H](CCC(=O)O)NC(=O)[C@@H](C)NC(=O)[C@@H](N)Cc1ccc(O)cc1)[C@@H](C)O)[C@@H](C)CC)C(=O)N[C@@H](CC(C)C)C(=O)N[C@@H](CC(C)C)C(=O)N[C@@H](CC(=O)O)C(=O)N[C@@H](CCCCN)C(=O)N[C@@H](CCCCNC(=O)COCCOCCNC(=O)COCCOCCNC(=O)CC[C@H](NC(=O)CCCCCCCCCCCCCCCCCCC(=O)O)C(=O)O)C(=O)N[C@@H](C)C(=O)N[C@@H](CCC(N)=O)C(=O)N[C@@H](CCC(N)=O)C(=O)N[C@@H](CC(=O)O)C(=O)N[C@@H](Cc1ccccc1)C(=O)N[C@H](C(=O)N[C@@H](CC(N)=O)C(=O)N[C@@H](Cc1c[nH]c2ccccc12)C(=O)N[C@@H](CC(C)C)C(=O)N[C@@H](CC(C)C)C(=O)N[C@@H](C)C(=O)N[C@@H](CCC(N)=O)C(=O)NCC(=O)N1CCC[C@H]1C(=O)N[C@@H](CO)C(=O)N[C@@H](CO)C(=O)NCC(=O)N[C@@H](C)C(=O)N1CCC[C@H]1C(=O)N1CCC[C@H]1C(=O)N1CCC[C@H]1C(=O)N[C@@H](CO)C(N)=O)C(C)C [Example 11] (H-Y[dA]EGTFISDYSILLDKK([AEEA-AEEA-γGlu-C20 diacid])AQQDFVNWLLAQGPSSGAPPPS-NH2) | 6.79 | 7.07
CC[C@H](C)[C@H](NC(=O)[C@H](CO)NC(=O)[C@H](Cc1ccc(O)cc1)NC(=O)[C@H](CC(=O)O)NC(=O)[C@H](CO)NC(=O)[C@@H](NC(=O)[C@H](Cc1ccccc1)NC(=O)[C@@H](NC(=O)CNC(=O)[C@H](CCC(=O)O)NC(=O)[C@@H](C)NC(=O)[C@@H](N)Cc1ccc(O)cc1)[C@@H](C)O)[C@@H](C)CC)C(=O)N[C@@H](CC(C)C)C(=O)N[C@@H](CC(C)C)C(=O)N[C@@H](CC(=O)O)C(=O)N[C@@H](CCCCN)C(=O)N[C@@H](CCCCNC(=O)COCCOCCNC(=O)COCCOCCNC(=O)CC[C@H](NC(=O)CCCCCCCCCCCCCCCCCCC(=O)O)C(=O)O)C(=O)N[C@@H](C)C(=O)N[C@@H](CCC(N)=O)C(=O)N[C@@H](CCC(N)=O)C(=O)N[C@@H](CC(=O)O)C(=O)N[C@@H](Cc1ccccc1)C(=O)N[C@H](C(=O)N[C@@H](CC(N)=O)C(=O)N[C@@H](Cc1c[nH]c2ccccc12)C(=O)N[C@@H](CC(C)C)C(=O)N[C@@H](CC(C)C)C(=O)N[C@@H](C)C(=O)NCC(=O)NCC(=O)N1CCC[C@H]1C(=O)N[C@@H](CO)C(=O)N[C@@H](CO)C(=O)NCC(=O)N[C@@H](C)C(=O)N1CCC[C@H]1C(=O)N1CCC[C@H]1C(=O)N1CCC[C@H]1C(=O)N[C@@H](CO)C(N)=O)C(C)C [Example 12] (H-Y[dA]EGTFISDYSILLDKK([AEEA-AEEA-γGlu-C20 diacid])AQQDFVNWLLAGGPSSGAPPPS-NH2) | 6.87 | 7.33
